Assay results reported in patent US20190045783A1, “SUBSTITUTED IMIDAZOLYLCARBOXAMIDES AS PESTICIDES” (BAYER CROPSCIENCE AKTIENGESELLSCHAFT, priority 2016, published 2019).
Like-named read-outs stand apart in the source and are kept apart here.

What was measured:
[1] = log P by HPLC on reversed-phase column (C18), EEC directive 79/831 Annex V.A8; format: physicochemical
[2] = system: green peach aphids (Myzus persicae); assay: Myzus persicae oral test; format: in vivo; settings: for pest or weed control at 20 ppm: Myzus persicae, 120 h, read-out: efficacy in %
Description: Solvent: 100 parts by weight of acetone
Subsequently, the plates are sealed with parafilm, which a mixed population of green peach aphids (Myzus persicae) within a second microtitre plate is able to puncture and imbibe the solution through it.
After 5 days, the efficacy in % is determined. 100% means that all the aphids have been killed; 0% means that no aphids have been killed.

[3] = system: green peach aphid (Myzus persicae); assay: Myzus persicae spray test (Chinese cabbage leaf discs); format: in vivo; settings: for pest or weed control at 500 g/ha: Myzus persicae, foliar, read-out: efficacy in %
Description: Myzus persicae—Spray Test
To produce a suitable active ingredient formulation, 1 part by weight of active ingredient is dissolved with the stated parts by weight of solvent and made up with water containing an emulsifier concentration of 1000 ppm until the desired concentration is attained. To produce further test concentrations, the formulation is diluted with emulsifier-containing water.
After 5-6 days, the efficacy in % is determined. 100% means that all the aphids have been killed; 0% means that no aphids have been killed.

[4] = application rate 20 ppm, after 5 days, oral, 100% = all aphids killed
[5] = application rate 500 g/ha, after 5-6 days, Chinese cabbage leaf discs, 100% = all aphids killed
[6] = reversed-phase HPLC column (C18), neutral range, pH 7.8, HPLC C18, 43° C., preparation examples, read-out: log P[n]
[7] = neutral range, pH 7.8, HPLC C18, 43° C., preparation examples, read-out: log P[n]

Structure (SMILES)	logP [n] ([1]; pH 7.8)	efficacy in % [2, 4] [%]	efficacy in % [3, 5] [%]	also measured
CO/N=C/c1ncc(C(=O)N(C)c2cccnc2)n1C [I-1-001]	1.1	100	90	–
CN(C(=O)c1cnc(C2OCCO2)n1C)c1cccnc1 [I-1-002]	0.73	100	90	–
CCN(C(=O)c1cnc(C2OCCO2)n1C)c1cccnc1 [I-1-003]	0.98	100	90	–
CCO/N=C/c1ncc(C(=O)N(C)c2cccnc2)n1C [I-1-004]	1.41	100	90	–
CC(C)O/N=C/c1ncc(C(=O)N(C)c2cccnc2)n1C [I-1-005]	1.7	100	100	–
CN(C(=O)c1cnc(C=O)n1C)c1cccnc1 [I-1-007, 2-Formyl-N,1-dimethyl-N-(pyridin-3-yl)-1H-imidazole-5-carboxamide]	–	–	–	chromatographic logP [1, 6]: 0.59; pest or weed control at 20 ppm ([2]; po): 100%; pest or weed control at 500 g/ha [3]: 100%
COCC1COC(c2ncc(C(=O)N(C)c3cccnc3)n2C)O1 (stereo not shown) [I-1-009]	0.95	100	90	–
CCC1COC(c2ncc(C(=O)N(C)c3cccnc3)n2C)O1 (stereo not shown) [I-1-011]	1.3	100	90	–
C=CCO/N=C/c1ncc(C(=O)N(C)c2cccnc2)n1C [I-1-012]	1.55	100	90	–
CN(C(=O)c1cnc(/C=N/OCc2ccccn2)n1C)c1cccnc1 [I-1-013]	1.26	100	100	–
CC1COC(c2ncc(C(=O)N(C)c3cccnc3)n2C)O1 (stereo not shown) [I-1-014]	1.02	100	100	–
CN(C(=O)c1cnc(C2OCC3(CC3)CO2)n1C)c1cccnc1 [I-1-015]	1.29	100	90	–
CN(C(=O)c1cnc(C2COC(C)(C)OC2)n1C)c1cccnc1 [I-1-016, 2-(2,2-Dimethyl-1,3-dioxan-5-yl)-N,1-dimethyl-N-(pyridin-3-yl)-1H-imidazole-5-carboxamide]	1.48	100	100	log P[n] ([1]; pH 7.8): 1.48
CCOC(=O)N/N=C/c1ncc(C(=O)N(C)c2cccnc2)n1C [I-1-017]	1.06	100	100	–
COC(=O)N(C)/N=C/c1ncc(C(=O)N(C)c2cccnc2)n1C [I-1-018, Methyl (2E)-1-methyl-2-({1-methyl-5-[methyl(pyridin-3-yl)carbamoyl]-1H-imidazol-2-yl}methylene)hydrazinecarboxylate]	–	–	–	chromatographic logP [1, 7]: 1.08; pest or weed control at 20 ppm [2, 4]: 100%; pest or weed control at 500 g/ha [3, 5]: 100%
CCOC(=O)N(C)/N=C/c1ncc(C(=O)N(C)c2cccnc2)n1C [I-1-019]	1.33	100	90	–
CC1OC(c2ncc(C(=O)N(C)c3cccnc3)n2C)OC1C (stereo not shown) [I-1-020]	1.23	100	100	–
CN(C(=O)c1cnc(C2OCCS2)n1C)c1cccnc1 (stereo not shown) [I-1-021]	0.97	100	100	–
CN(C(=O)c1cnc(C2OCCCS2)n1C)c1cccnc1 (stereo not shown) [I-1-022]	1.13	100	100	–
CCCO/N=C/c1ncc(C(=O)N(C)c2cccnc2)n1C [I-1-023]	1.74	100	100	–
COC(=O)c1ncc(C(=O)N(C)c2cccnc2)n1C [I-1-026, Methyl 1-methyl-5-[methyl(pyridin-3-yl)carbamoyl]-1H-imidazol-2-carboxylate]	–	–	–	chromatographic logP ([1]; acidic range, pH 2.7, HPLC C18, 43° C., preparation examples, read-out: log P[a]): 0.53; chromatographic logP [1, 7]: 0.84; chromatographic logP ([1]; reversed-phase HPLC column (C18), neutral range, pH 7.8, HPLC C18, 43° C., Table 1, read-out: logP [n]): 0.42; pest or weed control at 20 ppm [2, 4]: 100%; pest or weed control at 500 g/ha [3, 5]: 90%

Structure (SMILES)	logP [n] ([1]; pH 7.8)	efficacy in % [2, 4] [%]	efficacy in % [3, 5] [%]	also measured
CCCCO/N=C/c1ncc(C(=O)N(C)c2cccnc2)n1C [I-1-027]	2.08	100	100	–
CN(C(=O)c1cnc(/C=N/NC(=O)OCc2ccccc2)n1C)c1cccnc1 [I-1-028]	1.63	100	90	–
CCCCN(/N=C/c1ncc(C(=O)N(C)c2cccnc2)n1C)C(=O)OCC [I-1-029]	2.06	100	90	–
CN(C(=O)c1cnc(C(=O)NC(C)(C)C)n1C)c1cccnc1 [I-1-030]	1.62	100	90	–
CC(C)NC(=O)c1ncc(C(=O)N(C)c2cccnc2)n1C [I-1-032]	1.26	100	100	–
CC(C)CO/N=C/c1ncc(C(=O)N(C)c2cccnc2)n1C [I-1-034]	2.07	100	90	–
C#CCO/N=C/c1ncc(C(=O)N(C)c2cccnc2)n1C [I-1-035]	1.83	100	100	–
CN(C(=O)c1cnc(/C=N/OCC(C)(C)C)n1C)c1cccnc1 [I-1-036]	2.22	100	100	–
CN(/N=C/c1ncc(C(=O)N(C)c2cccnc2)n1C)C(=O)OC(C)(C)C [I-1-038]	1.82	100	90	–
CCN(C(=O)c1cnc(C2OCC(C)(C)CO2)n1C)c1cccnc1 [I-1-040]	1.61	100	90	–
CCN(C(=O)c1cnc(/C=N/OC(C)C)n1C)c1cccnc1 [I-1-041]	1.81	100	90	–
CNC(=O)c1ncc(C(=O)N(C)c2cccnc2)n1C [I-1-061]	0.7	100	–	–
CN(C(=O)c1cnc(C(=O)NCC2CC2)n1C)c1cccnc1 [I-1-063]	1.39	100	–	–
COC(=O)CNC(=O)c1ncc(C(=O)N(C)c2cccnc2)n1C [I-1-077]	0.93	90	–	–
CCONC(=O)c1ncc(C(=O)N(C)c2cccnc2)n1C [I-1-078]	0.67	–	90	–
CC(C)C(=O)c1ncc(C(=O)N(C)c2cccnc2)n1C [I-1-082, 2-Isobutyryl-N,1-dimethyl-N-(pyridin-3-yl)-1H-imidazole-5-carboxamide]	–	–	–	chromatographic logP [1, 6]: 1.55; pest or weed control at 500 g/ha [3, 5]: 100%
CCC(=O)c1ncc(C(=O)N(C)c2cccnc2)n1C [I-1-086]	1.23	–	90	–
CCN(C)C(=O)c1ncc(C(=O)N(c2cccnc2)C2CC2)n1C [I-1-087]	1.11	–	–	–
CN(C(=O)c1cnc(C(=O)NS(=O)(=O)C2CC2)n1C)c1cccnc1 [I-1-088]	0.72	–	–	–
CN(C(=O)c1cnc(C(=O)NCCO)n1C)c1cccnc1 [I-1-089]	0.45	–	–	–
CN(C(=O)c1cncn1C)c1cccnc1 [N,1-Dimethyl-N-(pyridin-3-yl)-1H-imidazole-5-carboxamide]	–	–	–	chromatographic logP [1, 6]: 0.44
